Values quoted from earlier work, collected in PMC4696931 (Advanced healthcare materials, 2015).

Assays:
MMP2 [1] = conditions: PEG hydrogels with the peptide as crosslinker
MMP2 [2] = conditions: linker peptide alone

## SGESPAY↓YTA [NRL1]
MMP2 [1]
  time to degradation of hydrogels crosslinked with the sequence in MMP2: ~ 1 days
MMP2 [2]
  reported kcat KM^−1 for MMP2: 440000 M⁻¹ s⁻¹
